24 molecules from US20230089368A1, “POLYAROMATIC UREA DERIVATIVES AND THEIR USE IN THE TREATMENT OF MUSCLE DISEASES” (ANAGENESIS BIOTECHNOLOGIES S.A.S., priority 2019, published 2023) can be followed below.

The structures appear in SMILES notation.

The subject of test [1] is muscle progenitors (hMP) from DMD hiPSC or WT hiPSC. In words: Myotube assay: myogenic activity (total myotube area per well). Conditions: Homo sapiens, 72 h, myotube assay, compounds incubated 3 days; for Emax: read-out: MA (normalized Myotube Area, efficacy); for EC50: 10 points dose-response 1.5 nM to 30 μM, read-out: EC50 (myogenic activity, half-maximal generation of myotubes). It is filed as cell-based, human. The gist of the method: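 DMD or WT hiPSC-derived muscle progenitors plated on collagen I in K5 medium with 5 μM Y-27632, treated with compound (1.5 nM–30 μM) for 3 days at 37° C. Cells were fixed, stained for alpha-actinin and imaged for total myotube area per well. EC50 and normalized myotube area (MA) taken from duplicate-averaged data.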

Test [2] has as its system satellite-like cells (Pax7-positive cells) in hMP. In words: Myotube assay: Pax7-positive (satellite-like) cell quantification. In kind it is cell-based, human. More on the design: key to Pax7% (pool of Pax7-positive cells) / Pax7: −: Depletes the pool of cells, while positively affects the myotubes; +: Maintains or increases the pool of cells, with at least 1 of the highest concentration known to be cytotoxic; ++: Maintains or increases the pool of cells, without any toxicity. The conditions noted are these: myotube assay, compounds incubated 3 days. The gist of the method:
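DMD hiPSC-derived muscle progenitors (hMP) proliferated 4 days, then plated on collagen I in K5 medium with 5 μM Y-27632. Compound added at 1.5 nM–30 μM for 3 days at 37° C, then cells fixed and immunostained. Pax7-positive cells counted as percentage of total nuclei, duplicates averaged.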

As to `CNC(=O)c1ccc(Oc2cccc(NC(=O)Nc3cc(C(C)(C)C)nn3-c3ccccc3)c2)cn1` [(ab), 5-(3-(3-(3-(tert-butyl)-1-phenyl-1H-pyrazol-5-yl)ureido)phenoxy)-N-methylpicolinamide], the Emax in test [1] was 50 to 75%. The “Pax7% (pool of Pax7-positive cells)” value in test [2] is given as “++”.

Take `CSc1cc(Oc2ccnc3[nH]c(=O)cnc23)ccc1NC(=O)Nc1cc(C(C)(C)C)nn1-c1ccccn1` [(ar), 1-(3-(tert-butyl)-1-(pyridin-2-yl)-1H-pyrazol-5-yl)-3-(2-(methylthio)-4-((3-oxo-3,4-dihydropyrido[2,3-b]pyrazin-8-yl)oxy)phenyl)urea]: the Emax in test [1] was ≥ 75%. In addition, the “Pax7% (pool of Pax7-positive cells)” value in test [2] is listed as “++”.

As to `CC(=O)Nc1cc(Oc2ccc(NC(=O)Nc3cc(C(C)(C)C)nn3-c3ccccc3)c(F)c2)ccn1` [(ae), N-(4-(4-(3-(3-(tert-butyl)-1-phenyl-1H-pyrazol-5-yl)ureido)-3-fluorophenoxy)pyridin-2-yl)acetamide], the Emax in test [1] was 50 to 75%. In addition, in test [2], the “Pax7% (pool of Pax7-positive cells)” value was “+”.

Consider `CSc1cc(Oc2ccnc(N)c2)ccc1NC(=O)Nc1cc(C(C)(C)C)nn1-c1ccccc1.Cl` [(bj), 1-(4-((2-aminopyridin-4-yl)oxy)-2-(methylthio)phenyl)-3-(3-(tert-butyl)-1-phenyl-1H-pyrazol-5-yl)urea hydrochloride], for which the Emax in test [1] is ≥ 75%. Besides, the “Pax7% (pool of Pax7-positive cells)” value in test [2] is given as “++”.

As for `CC(C)(C)c1cc(NC(=O)Nc2ccc(Oc3ccnc4c3CCC(=O)N4)c3ccccc23)on1` [(dg), 1-(3-(tert-butyl)isoxazol-5-yl)-3-(4-((7-oxo-5,6,7,8-tetrahydro-1,8-naphthyridin-4-yl)oxy)naphthalen-1-yl)urea], in test [1], the Emax is ≥ 75%. Besides, the “Pax7% (pool of Pax7-positive cells)” value in test [2] is “+”.

For the molecule `CNC(=O)c1cc(Oc2cccc(NC(=O)Nc3cc(C(C)(C)C)nn3-c3ccccc3)c2)ccn1` [(aa), 4-(3-(3-(3-(tert-butyl)-1-phenyl-1H-pyrazol-5-yl)ureido)phenoxy)-N-methylpicolinamide], in test [1], the EC50 is 1000 to 5000 nM and the Emax lay within 50 to 75%. In test [2], the “Pax7% (pool of Pax7-positive cells)” value is “++”.

As for `CC(C)Cc1cc(NC(=O)Nc2ccc(Oc3ccnc4[nH]c(=O)cnc34)cc2F)n(-c2ccccc2)n1` [(g), 1-(2-fluoro-4-((3-oxo-3,4-dihydropyrido[2,3-b]pyrazin-8-yl)oxy)phenyl)-3-(3-isobutyl-1-phenyl-1H-pyrazol-5-yl)urea], in test [1], the Emax was ≥ 75%. In test [2], the “Pax7% (pool of Pax7-positive cells)” value was “+”.

In the case of `CSc1cc(Oc2ccnc3[nH]c(=O)cnc23)ccc1NC(=O)Nc1cc(C(C)(C)C)nn1-c1ccc2ncccc2c1` [(bm), 1-(3-(tert-butyl)-1-(quinolin-6-yl)-1H-pyrazol-5-yl)-3-(2-(methylthio)-4-((3-oxo-3,4-dihydropyrido[2,3-b]pyrazin-8-yl)oxy)phenyl)urea], the Emax in test [1] is ≥ 75%. The “Pax7% (pool of Pax7-positive cells)” value in test [2] was “+”.

As for `Cc1cc(Oc2ccnc3[nH]c(=O)cnc23)ccc1NC(=O)Nc1cc(C(C)(C)C)nn1-c1ccccc1` [(al), 1-(3-(tert-butyl)-1-phenyl-1H-pyrazol-5-yl)-3-(2-methyl-4-((3-oxo-3,4-dihydropyrido[2,3-b]pyrazin-8-yl)oxy)phenyl)urea], the Emax in test [1] was ≥ 75%. Besides, the “Pax7% (pool of Pax7-positive cells)” value in test [2] was “++”.

As to `CCOC(=O)Nc1cc(Oc2ccc(NC(=O)Nc3cc(C(C)(C)C)nn3-c3ccccc3)c3ccccc23)ccn1` [(da), Ethyl (4-((4-(3-(3-(tert-butyl)-1-phenyl-1H-pyrazol-5-yl)ureido)naphthalen-1-yl)oxy)pyridin-2-yl)carbamate], the Emax in test [1] is ≥ 75%. Also, in test [2], the “Pax7% (pool of Pax7-positive cells)” value was “+”.

Consider `CSc1cc(Oc2ccnc3[nH]c(=O)cnc23)ccc1NC(=O)Nc1cc(C(C)(C)C)nn1-c1ccc(Cl)cc1` [(ao), 1-(3-(tert-butyl)-1-(4-chlorophenyl)-1H-pyrazol-5-yl)-3-(2-(methylthio)-4-((3-oxo-3,4-dihydropyrido[2,3-b]pyrazin-8-yl)oxy)phenyl)urea], for which the Emax in test [1] is ≥ 75%. Also, the “Pax7% (pool of Pax7-positive cells)” value in test [2] is “++”.

In the case of `CSc1cc(Oc2ccnc3[nH]c(=O)cnc23)ccc1NC(=O)Nc1cc(C(C)(C)C)nn1-c1ccc(CN2CCOCC2)cc1` [(dd), 1-(3-(tert-butyl)-1-(4-(morpholinomethyl)phenyl)-1H-pyrazol-5-yl)-3-(2-(methylthio)-4-((3-oxo-3,4-dihydropyrido[2,3-b]pyrazin-8-yl)oxy)phenyl)urea], the Emax in test [1] is ≥ 75%. The “Pax7% (pool of Pax7-positive cells)” value in test [2] is on record as “+”.

In the case of `CSc1cc(Oc2ccnc(NC(=O)CO)c2)ccc1NC(=O)Nc1cc(C(C)(C)C)nn1-c1ccccc1` [(dq), N-(4-(4-(3-(3-(tert-butyl)-1-phenyl-1H-pyrazol-5-yl)ureido)-3-(methylthio)phenoxy)pyridin-2-yl)-2-hydroxyacetamide], in test [1], the Emax is ≥ 75%. The “Pax7% (pool of Pax7-positive cells)” value in test [2] was “+”.

Turning to `CSc1cc(Oc2ccnc3[nH]c(=O)cnc23)ccc1NC(=O)Nc1nc(-c2ccc(F)c(F)c2)cs1` [(ax), 1-(4-(3,4-difluorophenyl)thiazol-2-yl)-3-(2-(methylthio)-4-((3-oxo-3,4-dihydropyrido[2,3-b]pyrazin-8-yl)oxy)phenyl)urea], the Emax in test [1] was in the range of 50 to 75%. In test [2], the “Pax7% (pool of Pax7-positive cells)” value is “++”.

As for `CSc1cc(Oc2ccnc3[nH]c(=O)ccc23)ccc1NC(=O)Nc1cc(C(C)(C)C)nn1-c1ccccc1` [(do), 1-(3-(tert-butyl)-1-phenyl-1H-pyrazol-5-yl)-3-(2-(methylthio)-4-((7-oxo-7,8-dihydro-1,8-naphthyridin-4-yl)oxy)phenyl)urea], in test [1], the Emax was ≥ 75%. Further, in test [2], the “Pax7% (pool of Pax7-positive cells)” value is on record as “+”.

As to `Cc1nc2c(Oc3ccc(NC(=O)Nc4cc(C(C)(C)C)nn4-c4ccccc4)c(F)c3)ccnc2c(=O)[nH]1` [(w), 1-(3-(tert-butyl)-1-phenyl-1H-pyrazol-5-yl)-3-(2-fluoro-4-((2-methyl-4-oxo-3,4-dihydropyrido[3,2-d]pyrimidin-8-yl)oxy)phenyl)urea], in test [1], the Emax lay in the range of 50 to 75%. In test [2], the “Pax7% (pool of Pax7-positive cells)” value is recorded as “++”.

Regarding `CSc1cc(Oc2ccnc3[nH]c(=O)cnc23)ccc1NC(=O)Nc1cc(C(C)(C)C)nn1-c1ccc(C)c(C)c1` [(cd), 1-(3-(tert-butyl)-1-(3,4-dimethylphenyl)-1H-pyrazol-5-yl)-3-(2-(methylthio)-4-((3-oxo-3,4-dihydropyrido[2,3-b]pyrazin-8-yl)oxy)phenyl)urea], the Emax in test [1] is ≥ 75%. For the same molecule, in test [2], the “Pax7% (pool of Pax7-positive cells)” value is “++”.

Take `CNC(=O)c1cncc(Oc2ccc(NC(=O)Nc3cc(C(C)(C)C)nn3-c3ccccc3)c(SC)c2)c1` [(ai), 5-(4-(3-(3-(tert-butyl)-1-phenyl-1H-pyrazol-5-yl)ureido)-3-(methylthio)phenoxy)-N-methylnicotinamide]: in test [1], the Emax is 50 to 75%. In addition, in test [2], the “Pax7% (pool of Pax7-positive cells)” value is on record as “++”.

In the case of `CSc1cc(Oc2ccnc3[nH]c(=O)cnc23)ccc1NC(=O)Nc1cc(C(C)(C)C)nn1C1CCCCC1` [(bn), 1-(3-(tert-butyl)-1-cyclohexyl-1H-pyrazol-5-yl)-3-(2-(methylthio)-4-((3-oxo-3,4-dihydropyrido[2,3-b]pyrazin-8-yl)oxy)phenyl)urea], the Emax in test [1] lay within 50 to 75%. In test [2], the “Pax7% (pool of Pax7-positive cells)” value is listed as “++”.

In the case of `COc1ccc(-n2nc(C(C)(C)C)cc2NC(=O)Nc2ccc(Oc3ccnc4[nH]c(=O)cnc34)cc2SC)cc1` [(aj), 1-(3-(tert-butyl)-1-(4-methoxyphenyl)-1H-pyrazol-5-yl)-3-(2-(methylthio)-4-((3-oxo-3,4-dihydropyrido[2,3-b]pyrazin-8-yl)oxy)phenyl)urea], in test [1], the EC50 lay within 500 to 1000 nM and the Emax is ≥ 75%. The “Pax7% (pool of Pax7-positive cells)” value in test [2] is reported as “++”.

On to `CC(C)(C)c1cc(NC(=O)Nc2ccc(Oc3ccnc4[nH]c(=O)cnc34)c(F)c2F)n(-c2ccccc2)n1` [(bo), 1-(3-(tert-butyl)-1-phenyl-1H-pyrazol-5-yl)-3-(2,3-difluoro-4-((3-oxo-3,4-dihydropyrido[2,3-b]pyrazin-8-yl)oxy)phenyl)urea], for which the Emax in test [1] was ≥ 75%. The “Pax7% (pool of Pax7-positive cells)” value in test [2] was “+”.

For the molecule `CSc1cc(Oc2ccnc3c2CCC(=O)N3)ccc1NC(=O)Nc1cc(C(C)(C)C)no1` [(cz), 1-(3-(tert-butyl)isoxazol-5-yl)-3-(2-(methylthio)-4-((7-oxo-5,6,7,8-tetrahydro-1,8-naphthyridin-4-yl)oxy)phenyl)urea], the Emax in test [1] was ≥ 75%. Moreover, in test [2], the “Pax7% (pool of Pax7-positive cells)” value was “+”.

Turning to `CC(C)c1cc(NC(=O)Nc2ccc(Oc3ccnc4[nH]c(=O)cnc34)cc2F)n(-c2ccccc2)n1` [(b), 1-(2-fluoro-4-((3-oxo-3,4-dihydropyrido[2,3-b]pyrazin-8-yl)oxy)phenyl)-3-(3-isopropyl-1-phenyl-1H-pyrazol-5-yl)urea], the Emax in test [1] was in the range of 25 to 50%. The “Pax7% (pool of Pax7-positive cells)” value in test [2] was “++”.

With `CSc1cc(Oc2ccnc3c2CCC(=O)N3)ccc1NC(=O)Nc1ncc(C(C)(C)C)s1` [(cb), 1-(5-(tert-butyl)thiazol-2-yl)-3-(2-(methylthio)-4-((7-oxo-5,6,7,8-tetrahydro-1,8-naphthyridin-4-yl)oxy)phenyl)urea], the Emax in test [1] was ≥ 75%. The “Pax7% (pool of Pax7-positive cells)” value in test [2] is “++”.
